ChEMBL document CHEMBL1201862, “PubChem BioAssay data set” (2004)
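Exposure lasted 48 hours, with cells grown in 96-well plates and compounds tested at five concentrations. Here, GI50 denotes the concentration required for 50% inhibition of growth.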 Calls of active or inactive are those of the source. No stated cut-off is given here; in the data, active = GI50 up to about 1.1 µM and inactive = higher.

Legend:
Experiment in all cases: NCI-60 cell line screen, 48 h
[1] = tested on: 786-0
[2] = tested on: A498
[3] = tested on: A549
[4] = tested on: ACHN
[5] = tested on: BT-549
[6] = tested on: CAKI-1
[7] = tested on: CCRF-CEM
[8] = tested on: COLO 205
[9] = tested on: DU-145
[10] = tested on: HCC 2998
[11] = tested on: HCT-116
[12] = tested on: HCT-15
[13] = tested on: HL-60
[14] = tested on: HOP-92
[15] = tested on: Hs-578T
[16] = tested on: K562
[17] = tested on: KM12
[18] = tested on: LOX IMVI
[19] = tested on: M14
[20] = tested on: MCF7
[21] = tested on: MDA-MB-231
[22] = tested on: MDA-MB-435
[23] = tested on: MDA-N
[24] = tested on: MOLT-4
[25] = tested on: NCI-H23
[26] = tested on: NCI-H460
[27] = tested on: OVCAR-3
[28] = tested on: OVCAR-4
[29] = tested on: OVCAR-5
[30] = tested on: PC-3
[31] = tested on: RPMI-8226
[32] = tested on: RXF 393
[33] = tested on: SF-268
[34] = tested on: SF-295
[35] = tested on: SF-539
[36] = tested on: SK-MEL-28
[37] = tested on: SK-MEL-2
[38] = tested on: SK-MEL-5
[39] = tested on: SK-OV-3
[40] = tested on: SN12C
[41] = tested on: SNB-19
[42] = tested on: SNB-75
[43] = tested on: SR
[44] = tested on: SW-620
[45] = tested on: T47D
[46] = tested on: TK-10
[47] = tested on: U-251
[48] = tested on: UACC-257
[49] = tested on: UACC-62
[50] = tested on: UO-31
[51] = tested on: EKVX
[52] = tested on: HOP-62
[53] = tested on: HT-29
[54] = tested on: IGROV-1
[55] = tested on: Malme-3M
[56] = tested on: NCI-H226
[57] = tested on: NCI-H522
[58] = tested on: OVCAR-8
[59] = tested on: NCI/ADR-RES

Measured: GI50

Cc1c(C)c(C)c(-n2c(=O)n(C)c(=O)n2C(C)(C)C)c(C)c1C
> 100 µM: [12]
inactive: [1] > 100 µM | [2] > 100 µM | [3] > 100 µM | [4] > 100 µM | [5] > 100 µM | [6] > 100 µM | [7] 38 µM | [8] > 100 µM | [9] > 100 µM | [10] > 100 µM | [11] > 100 µM | [13] 40.3 µM | [14] > 100 µM | [15] > 100 µM | [16] 81.1 µM | [17] > 100 µM | [18] > 100 µM | [19] > 100 µM | [20] > 100 µM | [21] > 100 µM | [22] > 100 µM | [23] > 100 µM | [24] > 100 µM | [25] > 100 µM | [26] > 100 µM | [27] > 100 µM | [28] > 100 µM | [29] > 100 µM | [30] > 100 µM | [31] 89.5 µM | [32] > 100 µM | [33] > 100 µM | [34] > 100 µM | [35] > 100 µM | [36] > 100 µM | [37] > 100 µM | [38] > 100 µM | [39] > 100 µM | [40] > 100 µM | [41] > 100 µM | [42] > 100 µM | [43] 85.9 µM | [44] > 100 µM | [45] > 100 µM | [46] > 100 µM | [47] > 100 µM | [48] > 100 µM | [49] > 100 µM | [50] > 100 µM

C[C@]12CCC(=O)C=C1CC[C@@H]1C2CC[C@]2(C)c3nn(-c4ccc(F)cc4)nc3CC12 (stereo partly drawn)
inactive: [1] 50.4 µM | [2] 49.8 µM | [3] > 100 µM | [4] > 100 µM | [5] > 100 µM | [6] > 100 µM | [7] > 100 µM | [8] > 100 µM | [9] > 100 µM | [51] > 100 µM | [10] > 100 µM | [11] > 100 µM | [13] > 100 µM | [52] 76.2 µM | [14] 61.1 µM | [53] > 100 µM | [15] 64.6 µM | [54] > 100 µM | [16] > 100 µM | [17] > 100 µM | [19] > 100 µM | [20] > 100 µM | [21] > 100 µM | [22] > 100 µM | [23] > 100 µM | [24] > 100 µM | [55] > 100 µM | [56] > 100 µM | [25] > 100 µM | [26] > 100 µM | [57] > 100 µM | [27] > 100 µM | [28] 49.3 µM | [29] > 100 µM | [58] > 100 µM | [30] > 100 µM | [32] 67.3 µM | [33] > 100 µM | [34] 69.8 µM | [35] > 100 µM | [36] > 100 µM | [38] > 100 µM | [39] > 100 µM | [40] > 100 µM | [41] 43.6 µM | [42] 38.1 µM | [43] > 100 µM | [44] > 100 µM | [45] > 100 µM | [46] > 100 µM | [47] 53.2 µM | [48] > 100 µM | [49] > 100 µM | [50] > 100 µM

C[n+]1c2ccccc2n2c3ccccc3c(NCCc3ccccn3)c(C#N)c21
inactive: [1] 1.58 µM | [2] 4.4 µM | [3] 3.62 µM | [4] 1.49 µM | [5] 5.89 µM | [6] 1.98 µM | [7] 1.25 µM | [8] 1.68 µM | [9] 2.72 µM | [51] 4.06 µM | [13] 3.13 µM | [52] 2.11 µM | [14] 5.97 µM | [53] 2.99 µM | [15] 2.81 µM | [16] 2.21 µM | [17] 2.47 µM | [18] 1.17 µM | [19] 2.38 µM | [21] 1.42 µM | [22] 1.47 µM | [23] 1.64 µM | [55] 2.81 µM | [56] 2.55 µM | [25] 2.56 µM | [59] 13.8 µM | [27] 2.34 µM | [29] 2 µM | [58] 1.18 µM | [30] 2.55 µM | [31] 1.64 µM | [33] 2.36 µM | [34] 2.32 µM | [35] 1.99 µM | [36] 2.32 µM | [37] 2.61 µM | [38] 2.9 µM | [39] 3.4 µM | [40] 1.23 µM | [41] 3.33 µM | [42] 1.38 µM | [45] 2.36 µM | [46] 1.14 µM | [47] 1.68 µM | [48] 3.5 µM | [49] 2.53 µM | [50] 1.76 µM
2.33 µM: [12]
active: [11] 0.933 µM | [20] 0.249 µM | [24] 1 µM | [26] 1.04 µM | [57] 0.828 µM | [28] 0.804 µM | [32] 1.01 µM | [44] 0.661 µM

Cc1c2cnccc2nc2[nH]c3ccncc3c12
inactive: [1] 3.24 µM | [2] 5.47 µM | [3] 2.94 µM | [4] 1.59 µM | [5] 6.92 µM | [6] 2.98 µM | [7] 5.75 µM | [8] 8.49 µM | [9] 10.7 µM | [51] 16 µM | [13] 19.9 µM | [52] 2.17 µM | [14] 3.78 µM | [53] 5.6 µM | [15] 16.6 µM | [54] 2.85 µM | [16] 10.8 µM | [17] 6.79 µM | [18] 2.29 µM | [19] 4.5 µM | [21] 55 µM | [22] 6.46 µM | [23] 10.6 µM | [24] 6.31 µM | [55] 3.33 µM | [25] 1.44 µM | [26] 2.16 µM | [57] 3.91 µM | [27] 10.4 µM | [28] 11.7 µM | [29] 5.62 µM | [58] 6.98 µM | [30] 4.56 µM | [31] 2.24 µM | [33] 2.47 µM | [34] 6.84 µM | [35] 6.73 µM | [36] 32.4 µM | [37] 11.4 µM | [38] 5.69 µM | [39] 21.5 µM | [40] 3.33 µM | [41] 13.7 µM | [42] > 100 µM | [43] 2.79 µM | [44] 3.93 µM | [45] 12.4 µM | [46] 3.95 µM | [47] 4.68 µM | [48] 20.1 µM | [49] 7 µM | [50] 4.08 µM
3.98 µM: [12]

CC1=NNC(=O)C1C1(C(=O)O)CC(c2c[nH]c3ccccc23)=NC(=S)N1 (stereo not drawn)
inactive: [1] 28.3 µM | [2] 94.8 µM | [3] 37.7 µM | [4] 33.5 µM | [5] 96.4 µM | [6] 43.5 µM | [7] 27.2 µM | [8] 17.1 µM | [9] 35.6 µM | [51] 20 µM | [11] 32.8 µM | [13] 38.3 µM | [52] 20 µM | [14] 22.3 µM | [53] 26.3 µM | [15] 15.2 µM | [16] 25.4 µM | [17] 15.2 µM | [18] 17.5 µM | [19] 16.9 µM | [21] 24.3 µM | [22] 35.5 µM | [23] 37.3 µM | [24] 19.4 µM | [55] 19 µM | [56] 10.1 µM | [25] 22.1 µM | [26] 22.8 µM | [57] 20 µM | [59] 46.8 µM | [27] 18.5 µM | [29] > 100 µM | [58] 39.4 µM | [30] 27.5 µM | [31] 24.9 µM | [32] 28.1 µM | [33] 32.1 µM | [34] 19.4 µM | [35] 24.5 µM | [36] 47.1 µM | [37] 18.4 µM | [38] 14.4 µM | [39] 32.1 µM | [40] 40 µM | [41] 29.3 µM | [42] 16.6 µM | [44] 38.5 µM | [45] 29 µM | [46] > 100 µM | [47] 26 µM | [48] 27.6 µM | [49] 41.2 µM | [50] 29.8 µM
42.6 µM: [12]
active: [54] 0.224 µM
